# Results taken from BindingDB's records for doi:10.1016/j.bmcl.2009.06.075 (Pfizer, 2009).
# Experiment: Antagonist activity at human P2Y12 receptor assessed as inhibition of ADP-induced platelet-rich plasma aggregation by turbidimetric method
row,IC50 [µM],SMILES
1,3,CCOC(=O)N1CCN(C(=O)[C@H](CCC(=O)O)NC(=O)c2cc(OC(CC)C(=O)N(CC)CC)cc(-c3ccccc3)n2)CC1 (stereo partly drawn) [(4S)-4-(4-(1-(diethylamino)-1-oxobutan-2-yloxy)-6-phenylpicolinamido)-5-(4-(ethoxycarbonyl)piperazin-1-yl)-5-oxopentanoic acid]
2,1.6,CCCCCCOC(=O)N1CCN(C(=O)[C@H](CCC(=O)O)NC(=O)c2cc(N3CCC(CN)CC3)cc(-c3ccccc3)n2)CC1 [(S)-4-(4-(4-(aminomethyl)piperidin-1-yl)-6-phenylpicolinamido)-5-(4-(hexyloxycarbonyl)piperazin-1-yl)-5-oxopentanoic acid]
3,4.1,CCCCCOC(=O)N1CCN(C(=O)[C@H](CCC(=O)O)NC(=O)c2cc(N(C)CCS(C)(=O)=O)cc(-c3ccccc3)n2)CC1 [(S)-4-(4-(methyl(2-(methylsulfonyl)ethyl)amino)-6-phenylpicolinamido)-5-oxo-5-(4-(pentyloxycarbonyl)piperazin-1-yl)pentanoic acid]
4,> 100,CCCCCCCCOC(=O)N1CCN(C(=O)[C@H](CCC(=O)O)NC(=O)c2cccc(-c3ccccc3)n2)CC1 [(4S)5-{4-[(Octyloxy)carbonyl]piperazin-1-yl}-5-oxo-4-{[(6-phenylpyridin-2-yl)carbonyl]amino}pentanoic Acid]
5,0.55,CCCCCOC(=O)N1CCN(C(=O)[C@H](CCC(=O)O)NC(=O)c2cc(OC3CCNCC3)cc(-c3ccccc3)n2)CC1 [(4S)5-Oxo-5-{4-[(pentyloxy)carbonyl]piperazin-1-yl}-4-({[6-phenyl-4-(piperidin-4-yloxy)yridin-2-yl]carbonyl}amino)entanoicAcid]
6,17.5,CN(CCS(C)(=O)=O)c1cc(C(=O)N[C@@H](CCC(=O)O)C(=O)N2CCN(C(=O)OCCC3CCCC3)CC2)nc(-c2ccccc2)c1 [(S)-5-(4-((2-cyclopentylethoxy)carbonyl)piperazin-1-yl)-4-(4-(methyl(2-(methylsulfonyl)ethyl)amino)-6-phenylpicolinamido)-5-oxopentanoic acid]
7,21,CCOC(=O)N1CCN(C(=O)[C@H](CCC(=O)O)NC(=O)c2cc(NC3CCOCC3)cc(-c3ccccc3)n2)CC1 [(S)-5-(4-(ethoxycarbonyl)piperazin-1-yl)-5-oxo-4-(6-phenyl-4-(tetrahydro-2H-pyran-4-ylamino)picolinamido)pentanoic acid]
8,14.1,NCC1CCN(c2cc(C(=O)N[C@@H](CCC(=O)O)C(=O)N3CCN(C(=O)OCCC4CCCC4)CC3)nc(-c3ccccc3)c2)CC1 [(S)-4-(4-(4-(aminomethyl)piperidin-1-yl)-6-phenylpicolinamido)-5-(4-((2-cyclopentylethoxy)carbonyl)piperazin-1-yl)-5-oxopentanoic acid]
9,7.6,CCOC(=O)N1CCN(C(=O)[C@H](CCC(=O)O)NC(=O)c2cc(N(C)CCS(C)(=O)=O)cc(-c3ccccc3)n2)CC1 [(S)-5-(4-(ethoxycarbonyl)piperazin-1-yl)-4-(4-(methyl(2-(methylsulfonyl)ethyl)amino)-6-phenylpicolinamido)-5-oxopentanoic acid]
10,9.4,C=CCOC(=O)N1CCN(C(=O)[C@H](CCC(=O)O)NC(=O)c2cc(OC3CCNCC3)cc(-c3ccccc3)n2)CC1 [(S)-5-(4-(allyloxycarbonyl)piperazin-1-yl)-5-oxo-4-(6-phenyl-4-(piperidin-4-yloxy)picolinamido)pentanoic acid]
11,81,CCOC(=O)N1CCN(C(=O)[C@H](CCC(=O)O)NC(=O)c2cc(NCc3ccccc3)cc(-c3ccccc3)n2)CC1 [(S)-4-(4-(benzylamino)-6-phenylpicolinamido)-5-(4-(ethoxycarbonyl)piperazin-1-yl)-5-oxopentanoic acid]
12,7.6,CCCCCCOC(=O)N1CCN(C(=O)[C@H](CCC(=O)O)NC(=O)c2cc(N3CCC(COC)CC3)cc(-c3ccccc3)n2)CC1 [(S)-5-(4-(hexyloxycarbonyl)piperazin-1-yl)-4-(4-(4-(methoxymethyl)piperidin-1-yl)-6-phenylpicolinamido)-5-oxopentanoic acid]
